Where “and” joins values, the source holds several entries; their conditions need not be identical. Identical values can stand only once.

The data set is described as follows: solvent given as SMILES.

The compound `FC(F)(F)c1ccc(-c2nnc(-c3cc(-c4nnc(-c5ccc(C(F)(F)F)cc5)o4)c(-n4c5ccccc5c5ccccc54)cc3-n3c4ccccc4c4ccccc43)o2)cc1` came in with an absorption maximum (in Cc1ccccc1) of 376 nm.
Take `CCN(CC)c1ccc(/C=N/C2CCCCC2/N=C/c2ccc(N(CC)CC)cc2O)c(O)c1` (centres undefined): the absorption maximum stood at 376 nm (in CC#N), 410 nm (in CN(C)C=O) and 403 nm (in ClCCl).
In turn, `N#Cc1c(-n2c3ccccc3c3ccccc32)c(-n2c3ccccc3c3ccccc32)c(-n2c3ccccc3c3ccccc32)c(-n2c3ccccc3c3ccccc32)c1-n1c2ccccc2c2ccccc21` returned an absorption maximum (in Cc1ccccc1) of 402.99 nm.
On to `COc1ccc(-c2c3ccccc3c(C#Cc3ccccc3)c3cc4ccccc4cc23)cc1`, for which the absorption maximum (in ClCCl) is 523 nm.
As to `CC(C)(C)c1ccc2c(c1)c1cc(C(C)(C)C)ccc1n2-c1ccc(S(=O)(=O)c2ccc(-n3c4ccc(C(C)(C)C)cc4c4cc(C(C)(C)C)ccc43)cn2)nc1`, the absorption maximum (in Cc1ccccc1) is given as 365.77 nm.
In the case of `CC(C)(C)NC(=O)c1ccc(Br)c2ccc3c4ccc(F)cc4c4cc(F)ccc4c3c12`, the absorption maximum (in ClCCl) came to 338 nm.
Take `N#Cc1cc(-c2ccc(/C=C/c3ccc(N(c4ccccc4)c4ccccc4)cc3)c(C#N)c2)ccc1/C=C/c1ccc(N(c2ccccc2)c2ccccc2)cc1`: for the setting “in ClCCl”, the absorption maximum is on record as 428 nm.
Take `COc1cc(OC)cc(C2=C3C(C)=C(I)C(C)=[N+]3[B-](F)(F)n3c(/C=C/c4c[nH]c5ccccc45)c(I)c(C)c32)c1`: the absorption maximum is on record as 627 nm (in C1CCOC1), 636 nm (in CS(C)=O) and 618 nm (in ClCCl).
In the case of `COc1ccc(-c2csc(/C(C#N)=C\Nc3ccc(C#N)cc3)n2)cc1`, the absorption maximum stood at 376 nm (in CC#N); 378 nm (in CCO); 380 nm (in CN(C)C=O); 381 nm (in Cc1ccccc1); 379 nm (in ClCCl).
With `CCN1/C(=C/C=C/C2=[N+](C)c3ccccc3C2(C)C)C(C)(C)c2ccccc21`, where the note is “in CS(C)=O”, the absorption maximum was 552 nm.
As to `COc1ccc(/C=C/c2ccncn2)cc1`, the absorption maximum (in ClCCl) amounted to 338 nm.
The compound `CCCCN1C(=O)c2cccc3cc(C#CC#Cc4cc5c6c(cccc6c4)C(=O)N(CCCC)C5=O)cc(c23)C1=O` yielded an absorption maximum (in ClCCl) of 314 nm.
On to `CC(C)(C)C#Cc1cc2c(C#CC(C)(C)C)c(C#CC(C)(C)C)c3cc(C#CC(C)(C)C)cc4c(C#CC(C)(C)C)c(C#CC(C)(C)C)c(c1)c2c34`, for which the absorption maximum (in ClCCl) stood at 383 nm.
`CCCCCCn1c2ccccc2c2cc(-c3ccc(-c4cc(-c5ccccn5)nc(-c5ccccn5)c4)cc3)ccc21` yielded an absorption maximum (in ClCCl) of 296 nm.
With `CN(C)c1ccc(-c2nc3c(c4c2-c2ccc(C#N)cc2CC4)-c2ccc(C#N)cc2CC3)cc1`, the absorption maximum came to 344 nm (in C1CCOC1); 343 nm (in CC#N); 348 nm (in CCCCCC); 333 nm (in CCOC(C)=O); 332 nm (in CO); 344 nm (in CS(C)=O). For the same compound, the absorption maximum (in Cc1ccccc1) was determined as 344 nm and the absorption maximum (in ClCCl) is 342 nm.
Take `CC1=CC(C)=[N+]2C1=C(c1ccc(I)cc1)c1c(C)cc(C)n1[B-]2(Oc1ccc(Cl)cc1)Oc1ccc(Cl)cc1`: the absorption maximum (in ClC(Cl)Cl) is 506 nm.
As to `CCn1c2ccccc2c2cc(/C=C/c3cc(/C=C/c4ccc5c(c4)c4ccccc4n5CC)ncn3)ccc21`, the absorption maximum runs as follows: (in C1CCOC1) 397 nm; (in CCOC(C)=O) 395 nm; (in CN(C)C=O) 405 nm; (in Cc1ccccc1) 397 nm; (in ClCCl) 405 nm.
Under “in C1CCCCC1”, `COc1ccc(OC)cc1` displayed an absorption maximum of 286.2 nm.
As to `COC(=O)C(NC(=O)OC(C)(C)C)c1ccc2oc(-c3ccc(OC(=O)c4ccccc4)cc3OC(=O)c3ccccc3)nc2c1` (centres undefined), the absorption maximum is, setting by setting: (in CC1CCCCC1) 323 nm; (in CC#N) 306 nm; (in CO) 306 nm.
Turning to `C(#Cc1nc2ccccc2s1)c1ccc(N(c2ccccc2)c2ccccc2)cc1`, under “in Cc1ccccc1”, the absorption maximum is recorded as 388 nm.
`COc1cc(C)c2c(c1C)OC(=O)c1c(C)c(Cl)c(O)c(Cl)c1O2` had an absorption maximum (in ClC(Cl)Cl) of 342 nm.
For `O=C1Cc2ccc(cc2)CC(=O)Cc2ccc(c3nsnc23)C1`, the absorption maximum by setting is: (in C1CCCCC1) 384 nm; (in CC#N) 382 nm; (in ClC(Cl)Cl) 384 nm.
Regarding `CC/C=C/C=C/C=C/C=C/CCCCCCCC(=O)O`, the absorption maximum (in C1COCCO1) stood at 317.3 nm; the absorption maximum (in CCCCCC) was determined as 313.5 nm; the absorption maximum (in CCCCCCCCCC) was determined as 315.3 nm; the absorption maximum (in CCCCO) is listed as 315.2 nm; the absorption maximum (in CCO) came out at 313.8 nm; the absorption maximum (in CCOCC) is given as 313.5 nm. Besides, the absorption maximum runs as follows: (in CO) 313 nm; (in ClC(Cl)Cl) 319.6 nm; (in c1ccccc1) 320 nm.
In the case of `Cc1cc(-c2ccc(-c3nc4ccccc4[nH]3)cc2)ccc1-c1ccc(-c2nc3ccccc3[nH]2)cc1`, the absorption maximum (in CN(C)C=O) came out at 330 nm.
`COc1cc(-c2nc(-c3ccccc3)c(-c3ccccc3)[nH]2)c(OC)cc1/C=C/c1ccncc1` registered an absorption maximum (in C1CCOC1) of 394 nm, an absorption maximum (in CC#N) of 392 nm, an absorption maximum (in CN(C)C=O) of 397 nm and an absorption maximum (in Cc1ccccc1) of 398 nm.
As for `CCN(CC)c1ccc2c(C)cc(=O)oc2c1`, the absorption maximum reads like this: (in C1CCCCC1) 350 nm; (in CC#N) 367 nm; (in CCCCCCCCO) 373 nm; (in CCCCCCO) 373 nm; (in CCCCO) 374 nm; (in CCCO) 376 nm. The absorption maximum (in CCO) was 376 nm and 435 nm and 373 nm; the absorption maximum (in CCOC(C)=O) is given as 361 nm; the absorption maximum (in OCC(O)CO) was found to be 384 nm.
As to `CC(C)c1cccc(C(C)C)c1N1C(=O)c2ccc3cc4c(cc5ccc6c7c(ccc4c57)C(=O)N(c4c(C(C)C)cccc4C(C)C)C6=O)c4ccc(c2c34)C1=O`, the absorption maximum (in ClCCl) came to 648 nm.
Regarding `CC(N)=O`, the absorption maximum (in O) was 220 nm.
Regarding `CCN(CC)c1ccc(-c2nc3c(c4c2-c2ccc(C#N)cc2CC4)-c2ccc(C#N)cc2CC3)cc1`, the absorption maximum is, setting by setting: (in C1CCOC1) 364 nm; (in CC#N) 360 nm; (in CCCCCC) 369 nm; (in CCOC(C)=O) 358 nm; (in CO) 360 nm; (in CS(C)=O) 375 nm. The absorption maximum is, setting by setting: (in Cc1ccccc1) 368 nm; (in ClCCl) 363 nm.
In turn, `N#Cc1ccc(/C=C2\C=C(c3ccccc3)OC2=O)cc1` registered an absorption maximum (in C1COCCO1) of 400 nm.
Consider `CN(C)CCNCc1c2ccccc2cc2ccccc12`, for which the absorption maximum by setting is: (in C1CCCCC1) 368 nm; (in C1CCOC1) 366 nm; (in CC#N) 365 nm; (in CC(C)=O) 365 nm; (in CCO) 366 nm; (in CN(C)C=O) 363 nm. The absorption maximum is 364 nm (in CO) and 367 nm (in ClC(Cl)Cl).
For the setting “in ClCCl”, `CCCN1c2ccc(C3=C4C=CC=[N+]4[B-](F)(F)n4cccc43)cc2Sc2cc(C3=C4C=CC=[N+]4[B-](F)(F)n4cccc43)ccc21` showed an absorption maximum of 500 nm.
As for `CC1(C)c2cc(C#N)ccc2-c2ccc(N3c4ccccc4Oc4ccccc43)cc21`, the absorption maximum is, setting by setting: (in C1CCCCC1) 395 nm; (in C1CCOC1) 380 nm; (in CC#N) 375 nm; (in Cc1ccccc1) 390 nm; (in ClC(Cl)Cl) 389 nm.
`CCN(CC)c1ccc(-c2nc(Oc3ccc(-c4nc5ccccc5s4)cc3)nc(Oc3ccc(-c4nc5ccccc5s4)cc3)n2)cc1` registered an absorption maximum (in CN(C)C=O) of 374 nm.
As to `Fc1nc(F)c(F)c(C#Cc2nccnc2C#Cc2c(F)c(F)nc(F)c2F)c1F`, the absorption maximum (in CC#N) was 305 nm.
As for `O=c1c2cc(S(=O)(=O)Cl)ccc2[nH]c2ccc(S(=O)(=O)Cl)cc12`, under “in CS(C)=O”, the absorption maximum was 399 nm.
Regarding `N#C/C(=C\c1ccc(Cl)cc1)c1nc(-c2ccccc2)cs1`, the absorption maximum (in CC#N) was 364 nm.
Take `Cc1cc(C)c2c(c1)nc1c(=O)n(C)c(=O)nc-1n2C`: the absorption maximum (in CC#N) was 448 nm.
`CCCCCCCCc1ccc(-c2ccc(-c3cc(-c4ccc(-c5ccc(CCCCCCCC)s5)c5nsnc45)c4ccc5c(-c6ccc(-c7ccc(CCCCCCCC)s7)c7nsnc67)cc(-c6ccc(-c7ccc(CCCCCCCC)s7)c7nsnc67)c6ccc3c4c65)c3nsnc23)s1` registered an absorption maximum (in ClC(Cl)Cl) of 452 nm.
Under “in CO”, `Cc1cc(C)c(B(c2cc(-c3ccc(C(C)(C)C)cc3)sc2-c2sc(-c3ccc(C(C)(C)C)cc3)cc2P(=O)(c2ccccc2)c2ccccc2)c2c(C)cc(C)cc2C)c(C)c1` showed an absorption maximum of 396 nm.
In the case of `Cc1cc(O)c(C(C)C)cc1/N=C/c1ccc(O)cc1`, the absorption maximum (in C1CCCCC1) is recorded as 339 nm; the absorption maximum (in C1CCOC1) was 342 nm; the absorption maximum (in C1COCCO1) was found to be 341 nm; the absorption maximum (in CC#N) is listed as 334 nm; the absorption maximum (in CC(C)(C)O) came out at 345 nm; the absorption maximum (in CC(C)O) was 340 nm. Moreover, the absorption maximum runs as follows: (in CCCCCC) 339 nm; (in CCCCO) 340 nm; (in CCO) 340 nm; (in CCOC(C)=O) 340 nm; (in CN(C)C=O) 344 nm; (in CO) 341 nm. In addition, the absorption maximum is 346 nm (in CS(C)=O); 337 nm (in ClC(Cl)Cl); 335 nm (in ClCCl); 342 nm (in O); 342 nm (in OCCO).
In the case of `Cc1ccc2ccccc2c1`, under “in C1CCCCC1”, the absorption maximum is on record as 303.77 nm.
`Cc1ccc2c(nc3c(=O)n(C)c(=O)nc-3n2C)c1C` showed an absorption maximum (in CC#N) of 448 nm.

The values are drawn from the Deep4Chem optical property database.
